Here are results for 16 molecules from patent US20260184702A1, “SYNTHESIS, PHARMACOLOGY AND USE OF NEW WATER-SOLUBLE AND SELECTIVE FMS-LIKE TYROSINE KINASE3 (FLT3) INHIBITORS” (Universität Regensburg, priority 2022, published 2026).

≈ marks a conversion by molar mass, not a printed value. Where a name gives a salt, the structure may show the parent alone. Read-outs that look alike come from different tables or passages of the source.

Series [1] can be described thus: Solubility test by UV-Vis spectroscopy of saturated solutions. The series is classed as physicochemical. To be noted: solvent DMSO.
Experiment in series [2]: as above
Conditions: saturated solution; for solubility: thermodynamic from solid. The series is classed as physicochemical. As for the experimental part: All UV-Vis measurements were carried out with an Agilent Cary 60 UV-Vis 2.00 between 800-200 nm. The absorbance was measured with a scan rate of 300.0 nm/min, a data interval of 0.50 nm and an UV-Vis Average Time of 0.10 s. For all measurements a cuvette with 10 mm light path was used. A calibration curve was plotted from several different concentrations and the solubility of the respective compound was determined by measuring the absorbance of a diluted saturated solution. As a blank curve a mixture of ultrapure water and ethanol in a ratio of 1:1 or 5:95 was recorded. For the calibration curve a 100 μM or a 10 μM solution of the compound in an ultrapure water:ethanol (1:1) or (5:95)-mixture was prepared and diluted to obtain at least 6 concentrations. […] The supernatant was taken using a syringe and filtered through a syringe filter (RC Membrane). The saturated solution was diluted with ultrapure water and ethanol to obtain an appropriate concentration in a water:ethanol (1:1) or (5:95)-mixture. The long wave absorbance maximum was used for determination of the solubility (mean values, determination in triplicate). […] By plotting the concentration of the solution against the absorbance values at the previously determined wavelength maximum a calibration curve was obtained (FIG. 1B).

A further series has as its target T1, human FLT3-ITD (Homo sapiens, UniProt P36888).
T1 sequence (P36888 1-993): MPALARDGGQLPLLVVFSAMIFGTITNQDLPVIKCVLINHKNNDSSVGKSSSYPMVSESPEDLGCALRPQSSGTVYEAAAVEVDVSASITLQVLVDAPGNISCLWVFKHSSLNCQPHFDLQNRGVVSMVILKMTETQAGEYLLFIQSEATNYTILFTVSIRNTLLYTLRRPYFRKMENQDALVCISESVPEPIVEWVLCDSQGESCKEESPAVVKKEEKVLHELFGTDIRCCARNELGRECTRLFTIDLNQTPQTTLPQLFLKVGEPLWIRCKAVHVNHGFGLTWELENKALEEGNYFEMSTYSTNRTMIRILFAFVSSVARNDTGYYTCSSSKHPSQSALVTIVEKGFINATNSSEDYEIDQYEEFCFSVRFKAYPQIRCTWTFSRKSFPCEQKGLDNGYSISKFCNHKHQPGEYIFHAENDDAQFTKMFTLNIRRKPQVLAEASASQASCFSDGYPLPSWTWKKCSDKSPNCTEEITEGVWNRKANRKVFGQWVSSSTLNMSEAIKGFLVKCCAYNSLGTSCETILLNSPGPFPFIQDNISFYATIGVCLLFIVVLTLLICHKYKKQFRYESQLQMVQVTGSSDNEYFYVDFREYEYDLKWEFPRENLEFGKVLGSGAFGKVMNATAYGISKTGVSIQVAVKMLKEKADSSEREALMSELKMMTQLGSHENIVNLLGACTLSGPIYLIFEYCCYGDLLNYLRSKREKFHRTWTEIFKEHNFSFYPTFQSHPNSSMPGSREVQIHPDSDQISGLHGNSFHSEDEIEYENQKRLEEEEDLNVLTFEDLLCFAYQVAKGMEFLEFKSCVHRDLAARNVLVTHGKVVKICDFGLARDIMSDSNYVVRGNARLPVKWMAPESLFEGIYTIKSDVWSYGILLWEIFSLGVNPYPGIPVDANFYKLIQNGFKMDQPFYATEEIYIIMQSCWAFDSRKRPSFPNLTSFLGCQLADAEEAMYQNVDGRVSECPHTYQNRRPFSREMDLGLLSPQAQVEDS
The series is described as follows: Enzymatic kinase assay FLT3 (ITD), 10-dose IC50 mode (Reaction Biology). The format is biochemical.

Series [3] has as its system subcutaneous MV4-11 CDX model. The series is described as follows: In vivo efficacy study in subcutaneous MV4-11 CDX model in NOD/SCID mice. To be noted: 50 mg/kg po daily 5 days.
The mark [4] stands for this setting: ethanol, organic solvent or mixture, ethanol, read-out: Solubility Ethanol.
Where [5] appears, read: ultrapure water, water, ultrapure water, read-out: Solubility Water.
[6] abbreviates: read-out: IC50 FLT3 (ITD); 10 μM ATP.
Where [7] appears, read: 10 μM ATP; read-out: IC50 FLT3 (ITD).
Setting [8] is: ethanol, 2,2,2-trifluoroacetate.

For the molecule `CC(C)(C)c1cc(NC(=O)Nc2ccc3oc(C(=O)c4cc5c(CN6CCOCC6)c(O)ccc5[nH]4)cc3c2)no1` [Compound 30b, 1-(5-(tert-Butyl)isoxazol-3-yl)-3-(2-(5-hydroxy-4-(morpholinomethyl)-1H-indole-2-carbonyl)benzofuran-5-yl)urea 2,2,2-trifluoroacetate], in series [1], the “Solubility DMSO” value is on record as “Soluble”. The results for the solubility in series [2] (setting [4]) and in series [2] (setting [5]) were 2570 µg/mL (≈ 4610 µM) and 140 µg/mL (≈ 251 µM), respectively.
In the case of `CC(C)(C)c1cc(NC(=O)Nc2ccc3oc(C(=O)c4cc5c(CN6CCCCC6)c(O)ccc5[nH]4)cc3c2)no1` [Compound 31a, 1-(5-(tert-Butyl)isoxazol-3-yl)-3-(2-(5-hydroxy-4-(piperidin-1-ylmethyl)-1H-indole-2-carbonyl)benzofuran-5-yl)urea], the “Solubility DMSO” value in series [1] is listed as “Soluble”. The figures for the solubility in series [2] (setting [4]) and in series [2] (setting [5]) were 2200 µg/mL (≈ 3960 µM) and less than 100 µg/mL, respectively.
For the molecule `CC(C)(C)c1cc(NC(=O)Nc2ccc3oc(C(=O)c4cc5c(CN6CCCCC6)c(OC(=O)N6CCC(N7CCCCC7)CC6)ccc5[nH]4)cc3c2)no1` [Compound 39a, 2-(5-(3-(5-(tert-Butyl)isoxazol-3-yl)ureido)benzofuran-2-carbonyl)-4-(piperidin-1-ylmethyl)-1H-indol-5-yl [1,4′-bipiperidine]-1′-carboxylate], the IC50 (as a rule, the concentration at which inhibition is half-maximal) on human FLT3-ITD (setting [6]) turned out to be 1.14 nM. Also, the results for the solubility in series [2] (setting [4]) and in series [2] (setting [5]) were 1590 µg/mL (≈ 2120 µM) and less than 100 µg/mL, respectively.
In the case of `CN(C)Cc1c(OC(=O)N2CCC(N3CCCCC3)CC2)ccc2[nH]c(C(=O)c3cc4cc(NC(=O)Nc5cc(C(C)(C)C)on5)ccc4o3)cc12` [Compound 42a, 2-(5-(3-(5-(tert-Butyl)isoxazol-3-yl)ureido)benzofuran-2-carbonyl)-4-((dimethylamino)methyl)-1H-indol-5-yl [1,4′-bipiperidine]-1′-carboxylate], on human FLT3-ITD (setting [6]), the IC50 came out at 1.23 nM.
Turning to `CN1CCN(Cc2c(OC(=O)N3CCC(N4CCCCC4)CC3)ccc3[nH]c(C(=O)c4cc5cc(NC(=O)Nc6cc(C(C)(C)C)on6)ccc5o4)cc23)CC1` [Compound 41c, 2-(5-(3-(5-(tert-Butyl)isoxazol-3-yl)ureido)benzofuran-2-carbonyl)-4-((4-methylpiperazin-1-yl)methyl)-1H-indol-5-yl [1,4′-bipiperidine]-1′-carboxylate Trihydrochloride], at human FLT3-ITD (read-out: IC50 FLT3 (ITD); 10 μM ATP; Trihydrochloride), the half-maximal inhibitory concentration (IC50) turned out to be 0.5 nM.
As to `CC(C)(C)c1cc(NC(=O)Nc2ccc3oc(C(=O)c4cc5c(CN6CCOCC6)c(OC(=O)N6CCC(N7CCCCC7)CC6)ccc5[nH]4)cc3c2)no1` [Compound 38c, 2-(5-(3-(5-(tert-Butyl)isoxazol-3-yl)ureido)benzofuran-2-carbonyl)-4-(morpholinomethyl)-1H-indol-5-yl [1,4′-bipiperidine]-1′-carboxylate Dihydrochloride], on human FLT3-ITD (read-out: IC50 FLT3 (ITD); 10 μM ATP; Dihydrochloride), the 50% inhibitory concentration (IC50) came out at 1.51 nM.
On to `CN(C)Cc1c(O)ccc2[nH]c(C(=O)c3cc4cc(NC(=O)Nc5cc(C(C)(C)C)on5)ccc4o3)cc12` [Compound 34a, 1-(5-tert-Butylisoxazol-3-yl)-3-(2-(4-((dimethylamino)methyl)-5-hydroxy-1H-indole-2-carbonyl)benzofuran-5-yl)urea], for which the concentration for half-maximal inhibition (IC50) on human FLT3-ITD (setting [7]) was found to be 1.51 nM.
For `CC(C)(C)c1cc(NC(=O)Nc2ccc3oc(C(=O)c4cc5c(CN6CCCCC6)c(O)ccc5[nH]4)cc3c2)no1` [Compound 31b, 1-(5-(tert-Butyl)isoxazol-3-yl)-3-(2-(5-hydroxy-4-(piperidin-1-ylmethyl)-1H-indole-2-carbonyl)benzofuran-5-yl)urea 2,2,2-trifluoroacetate], the “Solubility Ethanol” value in series [2] (setting [8]) is 1890 µg/mL (≈ 3400 µM).
`CO[C@@H]1[C@H](N(C)C(=O)c2ccccc2)C[C@H]2O[C@]1(C)n1c3ccccc3c3c4c(c5c6ccccc6n2c5c31)C(=O)NC4` [Midostaurin, reference compound]: in series [3], the “first death(s) (day of study)” value turned out to be 520000 s and the “second death (day of study)” value was 9 days. Moreover, in series [3] (5 mice), the “number of living subjects, day of study 5” value is recorded as 5; the “number of living subjects, day of study 6” value is listed as 4; the “number of living subjects, day of study 8” value is on record as 4; the “number of living subjects, day of study 13” value came to 3. In series [3] (5 mice), the “number of living subjects, day of study 26” value was found to be 3 and the “number of living subjects, day of study 36” value came to 0.
As for `CC(C)(C)c1cc(NC(=O)Nc2ccc3oc(C(=O)c4cc5c(CN6CCOCC6)c(OC(=O)N6CCC(N7CCCCC7)CC6)ccc5[nH]4)cc3c2)no1` [Compound 38a, 2-(5-(3-(5-(tert-Butyl)isoxazol-3-yl)ureido)benzofuran-2-carbonyl)-4-(morpholinomethyl)-1H-indol-5-yl[1,4′-bipiperidine]-1′-carboxylate], the solubility (commonly how much of the substance goes into solution per volume) is 890 µg/mL (≈ 1180 µM) in series [2] (setting [4]) and less than 100 µg/mL in series [2] (setting [5]).
`CC(C)(C)c1cc(NC(=O)Nc2ccc3oc(C(=O)c4cc5c(CN6CCOCC6)c(O)ccc5[nH]4)cc3c2)no1` [Compound 30c, 1-(5-(tert-Butyl)isoxazol-3-yl)-3-(2-(5-hydroxy-4-(morpholinomethyl)-1H-indole-2-carbonyl)benzofuran-5-yl)urea hydrochloride]: the IC50 on human FLT3-ITD (setting [7]) came to 2 nM.
`CCN1CCN(Cc2c(O)ccc3[nH]c(C(=O)c4cc5cc(NC(=O)Nc6cc(C(C)(C)C)on6)ccc5o4)cc23)CC1` [Compound 69b]: the “Solubility DMSO” value in series [1] is “Soluble”. In series [2] (ethanol), the “Solubility Ethanol” value was 4410 µg/mL (≈ 7540 µM). Further, the “Solubility Water” value in series [2] (ultrapure water) was 100 µg/mL (≈ 171 µM).
Take `CC(C)N1CCN(Cc2c(O)ccc3[nH]c(C(=O)c4cc5cc(NC(=O)Nc6cc(C(C)(C)C)on6)ccc5o4)cc23)CC1` [Compound 70b, 1-(5-(tert-Butyl)isoxazol-3-yl)-3-(2-(5-hydroxy-4-((4-isopropylpiperazin-1-yl)methyl)-1H-indole-2-carbonyl)benzofuran-5-yl)urea bis(2,2,2-trifluoroacetate)]: in series [2] (ethanol, bis(2,2,2-trifluoroacetate)), the “Solubility Ethanol” value turned out to be 1820 µg/mL (≈ 3040 µM). The “Solubility Water” value in series [2] (ultrapure water, bis(2,2,2-trifluoroacetate)) was determined as 370 µg/mL (≈ 618 µM).
Consider `CC(C)(C)OC(=O)N1CCN(Cc2c(O)ccc3[nH]c(C(=O)c4cc5cc(NC(=O)Nc6cc(C(C)(C)C)on6)ccc5o4)cc23)CC1` [Compound 54a], for which the “Solubility DMSO” value in series [1] was “Soluble”. In addition, the solubility was 900 µg/mL (≈ 1370 µM) in series [2] (setting [4]) and less than 100 µg/mL in series [2] (setting [5]).
As to `CC(C)(C)c1cc(NC(=O)Nc2ccc3oc(C(=O)c4cc5c(CN6CCCC6)c(OC(=O)N6CCC(N7CCCCC7)CC6)ccc5[nH]4)cc3c2)no1` [Compound 40a, 2-(5-(3-(5-(tert-Butyl)isoxazol-3-yl)ureido)benzofuran-2-carbonyl)-4-(pyrrolidin-1-ylmethyl)-1H-indol-5-yl [1,4′-bipiperidine]-1′-carboxylate], the 50% inhibitory concentration (IC50) at human FLT3-ITD (setting [6]) was 1.15 nM. In addition, the figures for the solubility in series [2] (setting [4]) and in series [2] (setting [5]) were 1240 µg/mL (≈ 1690 µM) and less than 100 µg/mL, respectively.
Consider `CC(C)(C)c1cc(NC(=O)Nc2ccc3oc(C(=O)c4cc5c(CN6CCCC6)c(O)ccc5[nH]4)cc3c2)no1` [Compound 32b, 1-(5-(tert-Butyl)isoxazol-3-yl)-3-(2-(5-hydroxy-4-(pyrrolidin-1-ylmethyl)-1H-indole-2-carbonyl)benzofuran-5-yl)urea 2,2,2-trifluoroacetate], for which, in series [2] (setting [8]), the “Solubility Ethanol” value amounted to 2400 µg/mL (≈ 4430 µM).
